Patent publication US20230203031A1, “COMPOUNDS USEFUL FOR INHIBITING CDK7” (Eli Lilly and Company, priority 2020, published 2023)
pIC50: −log10 of the molar value. Read-outs that look alike come from different tables or passages of the source.

How the values were obtained:
[1] = tested on: pCTD Ser5 in HCT116 cells; experiment: Phospho-carboxyl terminal domain (Ser5) p-CTD (S5) cell based Acumen assay; conditions: read-out: Relative IC50 for pCTD Ser5
Method: HCT116 cells (ATCC CCL-247) are cultured in McCoy’s 5A Medium Modified media supplemented with 10% FBS, 1% NaPyr, and 1% Pen/Strep and plated (prior to becoming 70% confluent) in 96-well flat-bottom plates at a density of 5,000 cells per well in 100 µL volume. The cells are incubated overnight in a cell culture incubator (5% CO2, 95% Relative Humidity (RH), and 37° C.) and allowed to attach to the plate. The following morning, the cells are dosed with compounds. Compound inhibitors are solubilized at 60 µM in culture medium containing 0.6% DMSO. Subsequently compound serial dilutions (1:3) are prepared over a 60 µM to 0.003 µM range. Cells are dosed with the addition of 50 µL from serial dilution plate to assay plate containing cell attached with 100 µL of media producing a final DMSO concentration of 0.2% with a final compound concentration dose range between 20 and 0.001 µM. For max point media containing 0.2% of DMSO is used and for min point, a reference compound diluted at 0.83 µM final concentration in the growth media containing 0.2% DMSO is used. After dosing with compounds, the cell plates are incubated at 37° C. and 5% CO2 for 4 hours. Growth media is removed carefully and the cells are fixed by adding 100 µL of 4% para-formaldehyde for 30 minutes at RT. Cell are washed once with PBS and incubated with 100 µL of cold MeOH for 15 minutes at RT for cell permeation. Again cells are washed twice with PBS (100 µL/each) and blocked with 100 µL/well of 1% BSA/PBS for 30 min at RT. 50 µL of 1:1000 primary antibody (Anti-phosphoCTD Ser5 Bethyl Laboratories cat# A300-655A) dilution in 1% BSA/PBS are added per well, the plates are sealed and incubated overnight at 4° C.
The following day cells are washed three times with PBS (100 µL/well) and incubated with 50 µL/well of secondary antibody (1:2000 dilution, Goat anti-rabbit IgM ALEXA FLUOR™ 488) in PBS for 1 hourr at room temperature. After washing 3× with PBS (100 µL/well), 100 µL, of 50 µg/mL RNAase (Sigma) and 1:1000 propidium iodide dilution in PBS are added per well. Plates are sealed and incubated for 1 hour at RT on the bench (preserved from light). Plates are analyzed on Acumen on FL2 (mean intensity), and FL3 (total intensity). Fluorescence plates are scanned with ACUMEN EXPLORER™ [Laser-scanning fluorescence microplate cytometer manufactured by TTP LABTECH LTD] to measure anti-phospho-carboxyl terminal domain at Serine 5 (pCTD). Image analysis is based on cellular fluorescent signals for identifying positive cells. pCTD (S5) positive cells are identified by mean intensity at 500-530 above the threshold. Total intensity at 575-640 from propidium iodide/DNA is used to identify individual cells. Assay output is % pCTD positive cells. The IC50 is determined by curve fitting to a four parameter logistic for each output using GENE DATA™.

CDK7/CyclinH/Mat1 = CDK7/CyclinH/Mat1 (Homo sapiens, UniProt P50613); experiment: Biochemical assay for inhibition of CDK7/CyclinH/MAT1 (radiolabel filter binding); conditions: 100 µM ATP
Method: The purpose of these assays is to measure the ability of the compounds described herein to inhibit CDK7/CyclinH/Mat1 complex kinase activity. […] All ligands, solvents, and reagents employed in the following assays are readily available from commercial sources, or can be readily synthesized by one skilled in the art. The IC50 determination for CDK7 and CDK9 are determined as follows.
The IC50 activity of the compounds described herein is determined using radiolabel filter binding (FB) assays using the purified human recombinant enzyme in the presence of ATP//[^33P]ATP and peptide substrate. The ATP concentrations chosen are at or near the enzyme Km for ATP.
Reactions are carried out in 96 well polystyrene plates in a final volume of 25 µL per well. 5 µL of test compound in 20% DMSO, 10 µL of substrate solution (ATP/33PATP and CDK7/9 tide), and 10 µL of enzyme solution are mixed. […] The enzyme solution is prepared for a final concentration of 1 nM CDK7/CyclinH/Mat1 enzyme [Proqinase 0366-0360-4 Lot 002)] diluted in kinase buffer. Test compounds are serially diluted 1:3 in 20% DMSO to create a 10 point curve at a starting concentration of 20 µM. 20% DMSO buffer alone without test compound is employed as high control (full activity in the absence of any inhibitor), 500 mM EDTA is used to determine the level of background in the absence of enzyme activity (low control). After mixing 5 µL of compounds with 10 µL of enzyme solution, the plate is incubated for 0 or 180 minutes at 22° C. After that time, the reaction is initiated by the addition of 10 µL substrate solution and incubated for 50 minutes at 22° C. The reaction is terminated by the addition of 80 µL of cold 10% orthophosphoric solution. The Filter Plates (opaque, non-sterile filter plates) are prewashed with 10 µL of 10% orthophosphoric solution to each well. 100 µL of the mixture are transferred to a phosphocellulose filter and incubated at room temperature for 45 minutes. Filter plates are washed with 200 µL 0.5 % orthophosphoric acid 3 times on a filter plate processor. Incorporation of 33Pi (counting of “cpm”) is determined by adding 80 µL of MICROSCINT™ to each well and read on a counter after an hour. Data is processed through a [sequence] [sequence]Ⓡ tool. Data are analyzed using a 4-parameter nonlinear logistic equation (four-parameter logistic concentration-response curve): Y = bot + [(top-bot)/1+(x/ IC50)slope] where Y = % inhibition, X = concentration yielding y% inhibition, Bottom = minimum value of y attained by curve, Top = maximum value of y attained by curve and Slope = steepness of curve at IC50. %Inh = [(median Max- x/ median Max - median Min)] . 100 IC50: concentration of compound that reduces a given response (ligand binding, enzyme response) by 50%.

CDK9/cyclinT1 = CDK9/cyclinT1 (Homo sapiens, UniProt P50750); experiment: Assay for inhibition of CDK9/CyclinT1 kinase activity (radiolabel filter binding); conditions: IC50 for CDK9 (3 hours preincubation), 100 µM ATP
Method: The purpose of these assays is to measure the ability of the compounds described herein to inhibit CDK7/CyclinH/Mat1 complex kinase activity. […] The IC50 determination for CDK7 and CDK9 are determined as follows.
The IC50 activity of the compounds described herein is determined using radiolabel filter binding (FB) assays using the purified human recombinant enzyme in the presence of ATP and peptide substrate. The ATP concentrations chosen are at or near the enzyme Km for ATP. Reactions are carried out in 96 well polystyrene plates in a final volume of 25 µL per well. 5 µL of test compound in 20% DMSO, 10 µL of substrate solution (ATP//[^33P]ATP and CDK7/9 tide) and 10 µL of enzyme solution are mixed. […] The enzyme solution is prepared for a final concentration of 7.5 nM CDK9/cyclinTl enzyme [Proqinase 0371-0345-1 (Lot 004)] diluted in kinase buffer. Test compounds are serially diluted 1:3 in 20% DMSO to create a 10 point curve at a starting concentration of 20 µM. 20% DMSO buffer alone without test compound is employed as high control (full activity in the absence of any inhibitor), 500 mM EDTA is used to determine the level of background in the absence of enzyme activity (low control). After mixing 5 µL of compounds with 10 µL of enzyme solution, the plate is incubated for 0 or 180 minutes at 22° C. After that time, the reaction is initiated by the addition of 10 µL substrate solution and incubated for 60 minutes at 22° C. The reaction is terminated by the addition of 80 µL of cold 10% orthophosphoric solution. Filter plates (opaque, non-sterile filter plates) are prewashed with 10 µL of 10% orthophosphoric solution per well. 100 µL of the mixture are transferred to a phosphocellulose filter and incubate at room temperature for 45 minutes. Filter plates are washed with 200 µL 0.5 % orthophosphoric acid 3 times on a filter plate processor. 80 µL of MICROSCINT™ is added to each well and read on a scintillation counter after an hour. Data is processed through a [sequence]-[sequence]Ⓡ tool. Data is analyzed using a 4-parameter nonlinear logistic equation (four-parameter logistic concentration-response curve): Y = bot + [(top-bot)/1+(x/ IC50)Slope] where Y = % inhibition, X = concentration yielding y% inhibition, Bottom = minimum value of y attained by curve, Top = maximum value of y attained by curve and Slope = steepness of curve at IC50. %Inh = [(median Max- x/ median Max - median Min)] . 100 IC50: concentration of compound that reduces a given response (ligand binding, enzyme response) by 50%. IC50 relative: concentration giving half the compound’s maximum response.

HCC1806 = experiment: Cell proliferation assay (CELL TITER GLO), HCC1806; assay type: cell-based; conditions: Homo sapiens, 144 h; HCC1806 breast cancer, six days after compound addition
Method: Cell lines are plated at the density 5000 cells per well in 100 µL per well growth medium into a white 96-well cell culture plate. See Table 1 for cell line and culture medium information. Plates are incubated at 37° C. and 5% CO2. The following day, a serial dilution of the test compound is prepared by diluting the compound 1:3 in DMSO for 10 points. The DMSO plate is 1000X the final concentration. In addition to the CDK7 inhibitor, a DMSO alone column is included as a maximum growth control and 10 µM staurosporine final column is included as a maximum growth inhibition control. A 10X dilution plate is then prepared by adding 2 µL per well from the 1000X DMSO plate to 198 µL per well of OMEM (Life Technologies, Carlsbad, CA, cat#31985-070). Cells are treated with indicated compound by adding 11 µL per well from the 10X OMEM plate to the cell plate containing 100 µL per well growth medium for a 1X final concentration. Plates are placed back into the incubator at 37° C. and 5% CO2. Six or seven days after compound addition, for HCC1806 or A2780 cells respectively, plates are removed from the incubator and allowed to equilibrate to RT. […] After 15 minute incubation on shaker, luminescence is read, 1 second per well, using a Wallac VICTOR2™. […]

[2] = IC50 after 3 hours of preincubation of CDK7 enzyme, 3 hours preincubation
[3] = IC50 in CDK7 without preincubation, no preincubation of enzyme with compound

Sequence of CDK9/cyclinT1 (P50750 whole entry): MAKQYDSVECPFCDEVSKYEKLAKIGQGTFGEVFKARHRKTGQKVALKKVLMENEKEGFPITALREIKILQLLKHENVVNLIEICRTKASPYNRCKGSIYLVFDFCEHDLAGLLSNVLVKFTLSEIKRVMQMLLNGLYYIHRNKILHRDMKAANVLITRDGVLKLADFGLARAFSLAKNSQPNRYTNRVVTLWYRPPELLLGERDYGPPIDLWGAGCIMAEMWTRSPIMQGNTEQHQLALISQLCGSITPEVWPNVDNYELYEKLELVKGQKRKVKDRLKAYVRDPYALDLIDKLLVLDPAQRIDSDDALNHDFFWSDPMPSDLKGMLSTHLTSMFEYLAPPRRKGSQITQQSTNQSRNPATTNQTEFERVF
Sequence of CDK9/cyclinT1 (O60563 whole entry partner): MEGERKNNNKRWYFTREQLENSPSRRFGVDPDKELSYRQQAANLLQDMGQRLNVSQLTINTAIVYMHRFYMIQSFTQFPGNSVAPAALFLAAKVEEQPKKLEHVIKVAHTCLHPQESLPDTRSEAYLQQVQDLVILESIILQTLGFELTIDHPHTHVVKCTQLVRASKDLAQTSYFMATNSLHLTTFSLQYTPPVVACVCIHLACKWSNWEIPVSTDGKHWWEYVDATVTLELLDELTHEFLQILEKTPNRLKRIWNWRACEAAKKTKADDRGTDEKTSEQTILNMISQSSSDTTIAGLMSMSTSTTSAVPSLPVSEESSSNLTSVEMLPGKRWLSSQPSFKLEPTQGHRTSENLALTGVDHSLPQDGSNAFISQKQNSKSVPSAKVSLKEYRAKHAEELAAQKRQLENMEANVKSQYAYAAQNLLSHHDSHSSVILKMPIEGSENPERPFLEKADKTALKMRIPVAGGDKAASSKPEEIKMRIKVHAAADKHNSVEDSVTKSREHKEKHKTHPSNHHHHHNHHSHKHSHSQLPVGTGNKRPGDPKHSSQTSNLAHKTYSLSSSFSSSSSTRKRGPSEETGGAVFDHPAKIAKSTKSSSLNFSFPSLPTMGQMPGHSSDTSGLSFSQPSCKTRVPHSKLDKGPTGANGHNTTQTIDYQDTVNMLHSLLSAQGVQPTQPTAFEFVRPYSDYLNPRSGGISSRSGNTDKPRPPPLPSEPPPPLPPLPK
Sequence of CDK7/CyclinH/Mat1 (P50613 whole entry): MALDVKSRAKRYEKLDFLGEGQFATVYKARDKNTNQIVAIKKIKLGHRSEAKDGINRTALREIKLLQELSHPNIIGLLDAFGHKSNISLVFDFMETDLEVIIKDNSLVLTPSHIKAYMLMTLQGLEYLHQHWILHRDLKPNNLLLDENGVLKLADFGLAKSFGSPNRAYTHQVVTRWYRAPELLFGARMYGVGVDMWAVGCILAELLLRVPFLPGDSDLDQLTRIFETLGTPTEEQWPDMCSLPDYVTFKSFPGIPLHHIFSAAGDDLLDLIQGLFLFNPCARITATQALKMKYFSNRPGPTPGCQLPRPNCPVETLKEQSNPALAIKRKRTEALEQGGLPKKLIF
Sequence of CDK7/CyclinH/Mat1 (P51946 whole entry partner): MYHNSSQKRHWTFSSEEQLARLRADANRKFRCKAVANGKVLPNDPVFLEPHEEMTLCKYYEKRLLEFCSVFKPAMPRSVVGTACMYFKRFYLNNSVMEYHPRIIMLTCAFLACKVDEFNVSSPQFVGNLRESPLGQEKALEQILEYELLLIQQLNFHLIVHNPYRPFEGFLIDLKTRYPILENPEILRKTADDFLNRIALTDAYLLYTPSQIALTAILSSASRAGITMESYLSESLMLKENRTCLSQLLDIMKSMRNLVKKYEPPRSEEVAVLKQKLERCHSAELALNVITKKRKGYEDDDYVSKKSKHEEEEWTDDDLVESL
Sequence of CDK7/CyclinH/Mat1 (P51948 whole entry partner): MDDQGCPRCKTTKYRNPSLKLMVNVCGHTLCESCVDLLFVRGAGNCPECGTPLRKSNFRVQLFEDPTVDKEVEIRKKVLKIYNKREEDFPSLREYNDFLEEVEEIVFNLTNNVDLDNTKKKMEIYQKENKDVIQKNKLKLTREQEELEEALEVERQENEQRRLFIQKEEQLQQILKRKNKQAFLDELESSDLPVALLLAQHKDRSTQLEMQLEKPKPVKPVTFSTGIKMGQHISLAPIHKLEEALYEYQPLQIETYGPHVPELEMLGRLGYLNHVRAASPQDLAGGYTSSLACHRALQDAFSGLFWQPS

SMILES	pIC50 ([1]; 4 hours)	pIC50 (CDK7/CyclinH/Mat1; [2])	pIC50 (CDK7/CyclinH/Mat1; [3])	pIC50 (CDK9/cyclinT1)	pIC50 ([1]; Homo sapiens, HCT-116, 4 h)	pIC50 (HCC1806)
C=CC(=O)N1CCO[C@H](CN2CCC(Nc3cc(C(C)F)cn4c(C(C)C)cnc34)CC2)C1 (single isomer, unassigned) [Example 2]	6.79	7.58	6.59	5.50		
C=CC(=O)N1CCO[C@H](CN2CCC(Nc3cc(C(C)O)cn4c(C(C)C)cnc34)CC2)C1 (single isomer, unassigned) [Example 5]	6.93	7.38	6.44	5.15		
C=CC(=O)N1CCO[C@H](CN2CCC(Nc3cc(C(F)(F)F)cn4c(C(C)C)cnc34)CC2)C1 [Example 8, 1-[(2R)-2-[[4-[[3-isopropyl-6-(trifluoromethyl)imidazo[1,2-a]pyridin-8-yl]amino]-1-piperidyl]methyl]morpholin-4-yl]prop-2-en-1-one]		8.24	7.18	5.67	7.58	
C=CC(=O)N1CCO[C@H](CN2CCC(Nc3cc(C(C)O)cn4c(C(C)C)cnc34)CC2)C1 (single isomer, unassigned) [Example 4]	7.26	7.84	6.81	5.09		
C=CC(=O)N1CCO[C@H](CN2CCC(Nc3cc(C(C)F)cn4c(C(C)C)cnc34)CC2)C1 (single isomer, unassigned) [Example 1]		7.84	6.91	5.75	6.79	7.71
[2H]C([2H])=C([2H])C(=O)N1CCO[C@H](CN2CCC(Nc3cc(C(F)(F)F)cn4c(C(C)C)cnc34)CC2)C1 [Example 6, 2,3,3-trideuterio-1-[(2R)-2-[[4-[[3-isopropyl-6-(trifluoromethyl)imidazo[1,2-a]pyridin-8-yl]amino]-1-piperidyl]methyl]morpholin-4-yl]prop-2-en-1-one]		8.40	7.17	5.79	7.80	
[2H]CC([2H])(C)c1cnc2c(NC3CCN(C[C@@H]4CN(C(=O)C=C)CCO4)CC3)cc(C(F)(F)F)cn12 (mixture of isomers) [Example 7, 1-[(2R)-2-[[4-[[3-[rac-1,2-dideuterio-1-methyl-ethyl]-6-(trifluoromethyl)imidazo[1,2-a]pyridin-8-yl]amino]-1-piperidyl]methyl]morpholin-4-yl]prop-2-en-1-one]		8.20	7.07	5.69	7.14	
